# Columns and labels:
# [1] = tested on: AML cell lines expressing functional p53 (MV4-11, OCI-AML2, OCI-AML3 and MOLM-13); experiment: Growth inhibition assay of AML cell lines expressing functional p53; type: cell-based, human; settings: 48 hours; at between nanomolar to low micromolar levels
# Experimental: Growth inhibition of some AML cell lines expressing functional p53 (MV4-11, OCI-AML2, OCI-AML3 and MOLM-13) by PI polyamide conjugates at different concentrations was tested. Briefly, the cells were placed at a density of 1×10^5 cells/mL. Different concentrations of a PI polyamide conjugate (Chb-M′ or Chb-50) were added to media, and the cells were incubated for 48 hours (n=3). The number of viable cells when the PI polyamide conjugate was not added was used as a control (DMSO control). Cell viability was assessed by counting the viable cells with Cell Count Reagent SF (Nacalai tesque, Inc.) and Infinite (registered trademark) 200 PRO multimode reader (TECAN) according to the manufacturer's instructions.
# [2] = tested on: MYL cells; experiment: PI-AnnexinV apoptosis staining, MYL cells; type: cell-based, human; settings: 1.5 μM or 3 μM, 48 hours, dependent on concentration
# Experimental: In addition, 1.5 μM or 3 μM of Chb-M′ was administered to MYL cells. After 48 hours, the percentage of apoptosis was analyzed by PI-AnnexinV apoptosis staining. As a result, early apoptosis rates were increased dependent on the concentration of Chb-M′ (FIG. 26-4).
# [3] = tested on: E-selectin; experiment: In vivo E-selectin expression in bone marrow endothelial cells; set-up: species or system mouse; settings: normal mice, 320 μg/kg, 6 times over 2 weeks, 24 hours after last administration
# Experimental: Changes in expression levels of E-selectin in bone marrow endothelial cells by Chb-M′ administration were examined in vivo. To normal mice, DMSO (control) or Chb-M′ was administered 6 times over 2 weeks (320 μg/kg per administration). Twenty-four hours after the last administration (in a state in which Chb-M′ had been eliminated from the body of the mouse), the femur and tibia were harvested, from them bone marrow hematopoietic cells were removed, and endothelial cells were collected and subjected to FACS analysis. CD45 negative cells (bone marrow cells without bone marrow hematopoietic cells) were gated, and a ratio between CD31 positive cells (vascular endothelial marker-positive) and Lin-negative CD45-negative CD31-positive E-selectin-positive cells (E-selectin-positive bone marrow vascular endothelial cells) was analyzed by FACS.
# [4] = tested on: A549; experiment: Cell viability, lung adenocarcinoma A549; type: cell-based, human; settings: A549 (EGFR wild-type p53 wild-type), 48 hours
# [5] = tested on: c-kit (KIT D816V mutation and V560G mutation); experiment: FACS of cell surface c-kit, HMC-1.2 mast cells; type: cell-based, human; settings: HMC-1.2 (mutated c-kit), 10 μM, 18-hour treatment; DMSO 113
# Text: Mast cells cause symptoms or diseases such as allergic reaction by receptor-mediated activation. In addition, c-kit signal transduction enhances release of chemical mediators from stimulated mast cells. The effect of the RUNX inhibitor on human mast cells was examined. As human mast cells, a LAD2 cell line (expressing wild-type c-kit) and an HMC-1.2 cell line (expressing mutated c-kit) were used. The HMC-1.2 cell line has KIT D816V mutation and V560G mutation. Wild-type c-kit is a SCF receptor and the cell proliferation is dependent on SCF. Accordingly, regarding the LAD2 cell line, 50 ng/ml of SCF was administered and experiments were performed as described below. The HMC-1.2 cell line has a mutation in c-kit and the cell proliferation is independent of SCF. Accordingly, regarding the HMC-1.2 cell line, SCF was not administered and experiments were performed as described below. As the RUNX inhibitor, Chb-M′ was used. […]
# To the LAD2 cell line, 10 μM Chb-M′ was administered. After 3 hours and 18 hours, different antibodies were used for immunostaining of c-kit expressed on the cell surface, and the expression levels were analyzed by FACS (fluorescence-activated cell sorter). […] After 18 hours, different antibodies were used for immunostaining of c-kit expressed on the cell surface, and the expression levels were analyzed by FACS. […]
# [6] = tested on: LNCaP cells; settings: read-out: IC50 (μM) in LNCaP cells; LNCaP (androgen-dependent), 48 hours
# [7] = Half-life in mouse; settings: in vivo
smiles,measurement,setting,value
CN(C)CCCNC(=O)c1cc(NC(=O)c2cc(NC(=O)c3cc(NC(=O)c4cc(NC(=O)CCCNC(=O)c5nc(NC(=O)c6nc(NC(=O)c7cc(NC(=O)c8nc(NC(=O)CCNC(=O)CCCc9ccc(N(CCCl)CCCl)cc9)cn8C)cn7C)cn6C)cn5C)cn4C)cn3C)cn2C)cn1C [Chb-M′],Growth inhibition of AML cells,[1],highly effective
same,Early apoptosis rates,[2],increased
same,E-selectin expression levels in bone marrow endothelial cells,[3],significantly decreased
same,IC50 compared with the EGFR inhibitor (gefitinib),[4],lower IC50 values
same,MFI (mean fluorescent intensity) of surface c-kit,[5],100
same,IC50,[6],0.68 µM
same,half-life,[7],~5 h

# Reference: patent publication US11235001B2, “RUNX inhibitor” (KYOTO UNIVERSITY, priority 2016, dated 2022)
